Bridge positions count the residues as written; N and C are the ends. Square brackets hold non-standard residues; d marks the D form. Peptide text beside a SMILES is read from it. * marks the point of attachment. DOTA = O=C(O)CN1CCN(CC(=O)O)CCN(CC(=O)*)CCN(CC(=O)O)CC1; Trp(7-aza) = N[C@@H](Cc1c[nH]c2ncccc12)C(=O)O; Pro(trans-4-F) = O=C(O)[C@@H]1C[C@@H](F)CN1; Bip = N[C@@H](Cc1ccc(-c2ccccc2)cc1)C(=O)O; Pro(cis-4-F) = O=C(O)[C@@H]1C[C@H](F)CN1; 1Nal = N[C@@H](Cc1cccc2ccccc12)C(=O)O; 2Nal = N[C@@H](Cc1ccc2ccccc2c1)C(=O)O; Hyp = O=C(O)[C@@H]1C[C@@H](O)CN1; αMeD = C[C@](N)(CC(=O)O)C(=O)O; Pip = O=C(O)[C@@H]1CCCCN1; hSer = N[C@@H](CCO)C(=O)O; Ahx = NCCCCCC(=O)O
molecular target: T1, human DLL3 (Homo sapiens, UniProt Q9NYJ7); assay: Affinity determination by Surface Plasmon Resonance (SPR), Biacore, 1:1 binding model; conditions: biotinylated human DLL3 on streptavidin chip, 25° C.; NB = nonbinding
T1 construct: biotin (biotinylated)
T1 sequence (Q9NYJ7 27-618): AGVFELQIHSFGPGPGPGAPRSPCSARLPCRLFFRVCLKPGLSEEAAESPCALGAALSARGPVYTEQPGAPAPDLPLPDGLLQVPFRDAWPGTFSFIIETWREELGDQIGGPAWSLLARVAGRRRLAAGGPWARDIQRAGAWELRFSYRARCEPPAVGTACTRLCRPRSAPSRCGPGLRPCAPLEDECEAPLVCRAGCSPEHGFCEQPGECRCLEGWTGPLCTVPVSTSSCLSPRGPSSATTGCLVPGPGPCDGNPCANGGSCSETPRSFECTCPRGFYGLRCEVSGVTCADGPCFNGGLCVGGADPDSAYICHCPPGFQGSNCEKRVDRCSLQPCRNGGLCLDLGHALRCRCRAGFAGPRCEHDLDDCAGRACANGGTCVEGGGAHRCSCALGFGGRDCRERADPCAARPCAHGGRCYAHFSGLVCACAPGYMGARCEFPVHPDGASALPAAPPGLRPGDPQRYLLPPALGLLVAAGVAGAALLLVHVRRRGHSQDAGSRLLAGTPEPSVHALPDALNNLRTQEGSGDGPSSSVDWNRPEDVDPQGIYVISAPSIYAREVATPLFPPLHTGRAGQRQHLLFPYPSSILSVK
How it was run: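 SPR with biotinylated human DLL3 captured on a streptavidin chip, with a reference surface subtracted. Samples were injected at several concentrations at 100 μL/min in phosphate buffer with 137 mM NaCl, 2.7 mM KCl, 0.05% P20 and 2% DMSO. Kinetic and affinity constants came from a 1:1 binding fit.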

CC(C)C[C@@H]1NC(=O)[C@H](Cc2c[nH]c3ccccc23)NC(=O)[C@@H](NC(=O)[C@H](CC(=O)O)NC(=O)[C@H](CO)NC(=O)CCCCCNC(=O)CN2CCN(CC(=O)O)CCN(CC(=O)O)CCN(CC(=O)O)CC2)CSSC[C@@H](C(=O)N2CCC[C@H]2C(=O)N[C@@H](Cc2ccc(-c3ccccc3)cc2)C(=O)N[C@@H](CC(=O)O)C(N)=O)NC(=O)[C@H](CC(N)=O)NC(=O)[C@H](Cc2c[nH]c3ccccc23)NC(=O)[C@H](CCC(N)=O)NC1=O [compound 38, DOTA-Ahx-S-D-C(3)-W-L-Q-W-N-C(3)-P-(BIP)-D-CONH2] ({DOTA-Ahx}-SDCWLQWNCP[Bip]D-NH2; disulfide 3-9) and CC(C)C[C@@H]1NC(=O)[C@H](Cc2c[nH]c3ccccc23)NC(=O)[C@@H](NC(=O)[C@H](CC(=O)O)NC(=O)[C@H](CO)NC(=O)CCCCCNC(=O)CN2CCN(CC(=O)O)CCN(CC(=O)O)CCN(CC(=O)O)CC2)CSSC[C@@H](C(=O)N2CCC[C@H]2C(=O)N[C@@H](Cc2ccc3ccccc3c2)C(=O)N[C@@H](CC(=O)O)C(N)=O)NC(=O)[C@H](CC(N)=O)NC(=O)[C@H](Cc2c[nH]c3ccccc23)NC(=O)[C@H](CCC(N)=O)NC1=O [compound 40, DOTA-Ahx-S-D-C(3)-W-L-Q-W-N-C(3)-P-(2Nal)-D-CONH2] ({DOTA-Ahx}-SDCWLQWNCP[2Nal]D-NH2; disulfide 3-9) cannot be ordered by Kd: > 300 nM for the first, > 300 nM for the second.

CC(C)C[C@@H]1NC(=O)[C@H](Cc2c[nH]c3ccccc23)NC(=O)[C@@H](NC(=O)[C@H](CC(=O)O)NC(=O)[C@H](CO)NC(=O)CCCCCNC(=O)CN2CCN(CC(=O)O)CCN(CC(=O)O)CCN(CC(=O)O)CC2)CSSC[C@@H](C(=O)N2CCC[C@H]2C(=O)N[C@@H](Cc2cccc3ccccc23)C(=O)N[C@@H](CC(=O)O)C(N)=O)NC(=O)[C@H](CC(N)=O)NC(=O)[C@H](Cc2c[nH]c3ccccc23)NC(=O)[C@H](CCC(N)=O)NC1=O [compound 39, DOTA-Ahx-S-D-C(3)-W-L-Q-W-N-C(3)-P-(1Nal)-D-CONH2] ({DOTA-Ahx}-SDCWLQWNCP[1Nal]D-NH2; disulfide 3-9) and CSCC[C@H](NC(C)=O)C(=O)N[C@@H](CO)C(=O)N[C@@H](CC(=O)O)C(=O)N[C@H]1CSSC[C@@H](C(=O)N2CCC[C@H]2C(=O)N[C@@H](Cc2ccccc2)C(=O)N[C@@](C)(CC(=O)O)C(=O)N[C@H](CCCCNC(=O)CN2CCN(CC(=O)O)CCN(CC(=O)O)CCN(CC(=O)O)CC2)C(N)=O)NC(=O)[C@H](CC(N)=O)NC(=O)[C@H](Cc2c[nH]c3ccccc23)NC(=O)[C@H](CCC(N)=O)NC(=O)[C@H](CC(C)C)NC(=O)[C@H](Cc2c[nH]c3ccccc23)NC1=O [compound 53, Ac-M-S-D-C(3)-W-L-Q-W-N-C(3)-P-F-(aMeD)-D-Lys(DOTA)-CONH2] (Ac-MSDCWLQWNCPF[αMeD][dK](DOTA)-NH2; disulfide 4-10) cannot be ordered by Kd: > 100 nM for the first, > 300 nM for the second.

First: CSCC[C@H](NC(C)=O)C(=O)N[C@@H](CO)C(=O)N[C@@H](CC(=O)O)C(=O)N[C@H]1CSSC[C@@H](C(=O)N2C[C@H](F)C[C@H]2C(=O)N[C@@H](Cc2ccccc2)C(=O)N[C@@H](CC(=O)O)C(=O)N[C@H](CCCCNC(=O)CN2CCN(CC(=O)O)CCN(CC(=O)O)CCN(CC(=O)O)CC2)C(N)=O)NC(=O)[C@H](CC(N)=O)NC(=O)[C@H](Cc2c[nH]c3ccccc23)NC(=O)[C@H](CCC(N)=O)NC(=O)[C@H](CC(C)C)NC(=O)[C@H](Cc2c[nH]c3ccccc23)NC1=O [compound 42, Ac-M-S-D-C(3)-W-L-Q-W-N-C(3)-(trans4Fluoro-P)-F-D-D-Lys(DOTA)-CONH2] (Ac-MSDCWLQWNC[Pro(trans-4-F)]FD[dK](DOTA)-NH2; disulfide 4-10)
Second: CSCC[C@H](NC(C)=O)C(=O)N[C@@H](CO)C(=O)N[C@@H](CC(=O)O)C(=O)N[C@H]1CSSC[C@@H](C(=O)N2C[C@@H](F)C[C@H]2C(=O)N[C@@H](Cc2ccccc2)C(=O)N[C@@H](CC(=O)O)C(=O)N[C@H](CCCCNC(=O)CN2CCN(CC(=O)O)CCN(CC(=O)O)CCN(CC(=O)O)CC2)C(N)=O)NC(=O)[C@H](CC(N)=O)NC(=O)[C@H](Cc2c[nH]c3ccccc23)NC(=O)[C@H](CCC(N)=O)NC(=O)[C@H](CC(C)C)NC(=O)[C@H](Cc2c[nH]c3ccccc23)NC1=O [compound 43, Ac-M-S-D-C(3)-W-L-Q-W-N-C(3)-(cis4Fluoro-P)-F-D-D-Lys(DOTA)-CONH2] (Ac-MSDCWLQWNC[Pro(cis-4-F)]FD[dK](DOTA)-NH2; disulfide 4-10)
The Kd of the first is 2.8-fold lower: 10 nM for the first, 28 nM for the second.

CSCC[C@H](NC(C)=O)C(=O)N[C@@H](CO)C(=O)N[C@@H](CC(=O)O)C(=O)N[C@H]1CSSC[C@@H](C(=O)N2C[C@H](O)C[C@H]2C(=O)N[C@@H](Cc2ccccc2)C(=O)N[C@@H](CC(=O)O)C(=O)N[C@H](CCCCNC(=O)CN2CCN(CC(=O)O)CCN(CC(=O)O)CCN(CC(=O)O)CC2)C(N)=O)NC(=O)[C@H](CC(N)=O)NC(=O)[C@H](Cc2c[nH]c3ccccc23)NC(=O)[C@H](CCC(N)=O)NC(=O)[C@H](CC(C)C)NC(=O)[C@H](Cc2c[nH]c3ccccc23)NC1=O [compound 44, Ac-M-S-D-C(3)-W-L-Q-W-N-C(3)-(trans4OH-P)-F-D-D-Lys(DOTA)-CONH2] (Ac-MSDCWLQWNC[Hyp]FD[dK](DOTA)-NH2; disulfide 4-10) and CSCC[C@H](NC(C)=O)C(=O)N[C@@H](CO)C(=O)N[C@@H](CC(=O)O)C(=O)N[C@H]1CSSC[C@@H](C(=O)N2CCCC[C@H]2C(=O)N[C@@H](Cc2ccccc2)C(=O)N[C@@H](CC(=O)O)C(=O)N[C@H](CCCCNC(=O)CN2CCN(CC(=O)O)CCN(CC(=O)O)CCN(CC(=O)O)CC2)C(N)=O)NC(=O)[C@H](CC(N)=O)NC(=O)[C@H](Cc2c[nH]c3ccccc23)NC(=O)[C@H](CCC(N)=O)NC(=O)[C@H](CC(C)C)NC(=O)[C@H](Cc2c[nH]c3ccccc23)NC1=O [compound 47, Ac-M-S-D-C(3)-W-L-Q-W-N-C(3)-(Pip)-F-D-D-Lys(DOTA)-CONH2] (Ac-MSDCWLQWNC[Pip]FD[dK](DOTA)-NH2; disulfide 4-10) are the same in Kd: 26 nM for the first, 26 nM for the second.

CSCC[C@H](NC(C)=O)C(=O)N[C@@H](CO)C(=O)N[C@@H](CC(=O)O)C(=O)N[C@H]1CSSC[C@@H](C(=O)N2CCC[C@H]2C(=O)N[C@@H](Cc2ccccc2)C(=O)N[C@@H](CCO)C(=O)N[C@H](CCCCNC(=O)CN2CCN(CC(=O)O)CCN(CC(=O)O)CCN(CC(=O)O)CC2)C(N)=O)NC(=O)[C@H](CC(N)=O)NC(=O)[C@H](Cc2c[nH]c3ccccc23)NC(=O)[C@H](CCC(N)=O)NC(=O)[C@H](CC(C)C)NC(=O)[C@H](Cc2c[nH]c3ccccc23)NC1=O [compound 54, Ac-M-S-D-C(3)-W-L-Q-W-N-C(3)-P-F-(hSer)-D-Lys(DOTA)-CONH2] (Ac-MSDCWLQWNCPF[hSer][dK](DOTA)-NH2; disulfide 4-10) and CSCC[C@H](NC(C)=O)C(=O)N[C@@H](CO)C(=O)N[C@@H](CC(=O)O)C(=O)N[C@H]1CSSC[C@@H](C(=O)N2CCC[C@H]2C(=O)N[C@@H](Cc2ccccc2)C(=O)N[C@@H](CC(=O)O)C(=O)N[C@H](CCCCNC(=O)CN2CCN(CC(=O)O)CCN(CC(=O)O)CCN(CC(=O)O)CC2)C(N)=O)NC(=O)[C@H](CC(N)=O)NC(=O)[C@H](Cc2c[nH]c3ccccc23)NC(=O)[C@H](CCC(N)=O)NC(=O)[C@H](CC(C)C)NC(=O)[C@H](Cc2c[nH]c3ncccc23)NC1=O [compound 57, Ac-M-S-D-C(3)-(7Aza-W)-L-Q-W-N-C(3)-P-F-D-D-Lys(DOTA)-CONH2] (Ac-MSDC[Trp(7-aza)]LQWNCPFD[dK](DOTA)-NH2; disulfide 4-10) cannot be ordered by Kd: > 300 nM for the first, > 300 nM for the second.

CSCC[C@H](NC(C)=O)C(=O)N[C@@H](CO)C(=O)N[C@@H](CC(=O)O)C(=O)N[C@H]1CSSC[C@@H](C(=O)N2CCC[C@H]2C(=O)N[C@@H](Cc2ccccc2)C(=O)N[C@@H](CC(=O)O)C(=O)N[C@H](CCCCNC(=O)CN2CCN(CC(=O)O)CCN(CC(=O)O)CCN(CC(=O)O)CC2)C(N)=O)NC(=O)[C@H](CC(N)=O)NC(=O)[C@H](Cc2c[nH]c3ccccc23)NC(=O)[C@H](CCC(N)=O)NC(=O)[C@H](CC(C)C)NC(=O)[C@H](Cc2ccc(-c3ccccc3)cc2)NC1=O [compound 55, Ac-M-S-D-C(3)-(BIP)-L-Q-W-N-C(3)-P-F-D-D-Lys(DOTA)-CONH2] (Ac-MSDC[Bip]LQWNCPFD[dK](DOTA)-NH2; disulfide 4-10) and CSCC[C@H](NC(C)=O)C(=O)N[C@@H](CO)C(=O)N[C@@H](CC(=O)O)C(=O)N[C@H]1CSSC[C@@H](C(=O)N2CCC[C@H]2C(=O)N[C@@H](Cc2ccccc2)C(=O)N[C@@H](CC(=O)O)C(=O)N[C@H](CCCCNC(=O)CN2CCN(CC(=O)O)CCN(CC(=O)O)CCN(CC(=O)O)CC2)C(N)=O)NC(=O)[C@H](CC(N)=O)NC(=O)[C@H](Cc2ccc(-c3ccccc3)cc2)NC(=O)[C@H](CCC(N)=O)NC(=O)[C@H](CC(C)C)NC(=O)[C@H](Cc2c[nH]c3ccccc23)NC1=O [compound 60, Ac-M-S-D-C(3)-W-L-Q-(BIP)-N-C(3)-P-F-D-D-Lys(DOTA)-CONH2] (Ac-MSDCWLQ[Bip]NCPFD[dK](DOTA)-NH2; disulfide 4-10) cannot be ordered by Kd: > 300 nM for the first, > 300 nM for the second.

— patent US20250186541A1, “DLL3 TARGETING PEPTIDES AND CONSTRUCTS THEREOF” (MARIANA ONCOLOGY INC., priority 2023, published 2025)
